Assay results as given in PubChem BioAssay AID2060488 (Molecular Pharmacology Branch, DTP, NCI, 2025).
One block for each compound: values may come before it.

System: 966289-007-R4-J1-PDC complex spheroid viability
Assay: Anticancer human tumor 966289-007-R4-J1-PDC patient-derived pancreatic adenocarcinoma cell line growth inhibition [GQUAD]
Conditions: for IC50: curve of first compound; for viability, T/C: stronger effect = lower value
Summary of the method: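 Viability of tumor cells grown as complex spheroids with endothelial and stromal cells, exposed to drug combinations. Top concentration at or near clinical Cmax (else 10 microM), diluted in half-log increments.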

[1] = second compound 0.0316 µM, first compound 0.0316 µM
[2] = second compound 0.0316 µM, first compound 0.1 µM
[3] = second compound 0.0316 µM, first compound 0.316 µM
[4] = second compound 0.0316 µM, first compound 1 µM
[5] = second compound 0.0316 µM, first compound 3.16 µM
[6] = second compound 0.0316 µM, first compound 10 µM
[7] = second compound 0.1 µM, first compound 0.0316 µM
[8] = second compound 0.1 µM, first compound 0.1 µM
[9] = second compound 0.1 µM, first compound 0.316 µM
[10] = second compound 0.1 µM, first compound 1 µM
[11] = second compound 0.1 µM, first compound 3.16 µM
[12] = second compound 0.1 µM, first compound 10 µM
[13] = second compound 0.316 µM, first compound 0.0316 µM
[14] = second compound 0.316 µM, first compound 0.1 µM
[15] = second compound 0.316 µM, first compound 0.316 µM
[16] = second compound 0.316 µM, first compound 1 µM
[17] = second compound 0.316 µM, first compound 3.16 µM
[18] = second compound 0.316 µM, first compound 10 µM
[19] = second compound 1 µM, first compound 0.0316 µM
[20] = second compound 1 µM, first compound 0.1 µM
[21] = second compound 1 µM, first compound 0.316 µM
[22] = second compound 1 µM, first compound 1 µM
[23] = second compound 1 µM, first compound 3.16 µM
[24] = second compound 1 µM, first compound 10 µM
[25] = second compound 3.16 µM, first compound 0.0316 µM
[26] = second compound 3.16 µM, first compound 0.1 µM
[27] = second compound 3.16 µM, first compound 0.316 µM
[28] = second compound 3.16 µM, first compound 1 µM
[29] = second compound 3.16 µM, first compound 3.16 µM
[30] = second compound 3.16 µM, first compound 10 µM
[31] = second compound 10 µM, first compound 0.0316 µM
[32] = second compound 10 µM, first compound 0.1 µM
[33] = second compound 10 µM, first compound 0.316 µM
[34] = second compound 10 µM, first compound 1 µM
[35] = second compound 10 µM, first compound 3.16 µM
[36] = second compound 10 µM, first compound 10 µM
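Note: spheroids exposed to the agents for seven days before readout.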
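Throughout, for viability, T/C: percent viability relative to DMSO vehicle control wells taken as 100%.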

SMILES: C=CCn1c(=O)c2cnc(Nc3ccc(N4CCN(C)CC4)cc3)nc2n1-c1cccc(C(C)(C)O)n1 + Cc1[nH]c2ccc(F)cc2c1-c1nc2c3cccnc3c3ncccc3c2[nH]1
IC50 (second compound 0.0316 µM): 1830 nM | IC50 (second compound 0.1 µM): 1830 nM | IC50 (second compound 0.316 µM): 1840 nM | IC50 (second compound 1 µM): 1850 nM | IC50 (second compound 3.16 µM): 1760 nM | IC50 (second compound 10 µM): 1760 nM | viability, T/C [1]: 101% | viability, T/C [2]: 96.7% | viability, T/C [3]: 112% | viability, T/C [4]: 99.7% | viability, T/C [5]: 4.85% | viability, T/C [6]: 1.9% | viability, T/C [7]: 99.5% | viability, T/C [8]: 98.9% | viability, T/C [9]: 110% | viability, T/C [10]: 99.9% | viability, T/C [11]: 4.92% | viability, T/C [12]: 2.17% | viability, T/C [13]: 97.5% | viability, T/C [14]: 103% | viability, T/C [15]: 111% | viability, T/C [16]: 98% | viability, T/C [17]: 7.35% | viability, T/C [18]: 1.74% | viability, T/C [19]: 95.7% | viability, T/C [20]: 98.3% | viability, T/C [21]: 111% | viability, T/C [22]: 100% | viability, T/C [23]: 6.22% | viability, T/C [24]: 2% | viability, T/C [25]: 102% | viability, T/C [26]: 109% | viability, T/C [27]: 109% | viability, T/C [28]: 92.9% | viability, T/C [29]: 5.37% | viability, T/C [30]: 2.62% | viability, T/C [31]: 106% | viability, T/C [32]: 107% | viability, T/C [33]: 109% | viability, T/C [34]: 93.5% | viability, T/C [35]: 4.68% | viability, T/C [36]: 2.33%

IC50 (second compound 0.0316 µM): < 31.6 nM | IC50 (second compound 0.1 µM): < 31.6 nM | IC50 (second compound 0.316 µM): < 31.6 nM | IC50 (second compound 1 µM): < 31.6 nM | IC50 (second compound 3.16 µM): < 31.6 nM | IC50 (second compound 10 µM): < 31.6 nM
SMILES: CC(C)n1c(=O)n(C)c2cnc3cc(F)c(-c4ccc(OCCCN5CCCCC5)nc4)cc3c21 + Cc1cnc(CNC(=O)c2c(=O)c3ccc(N4CCCN(C)CC4)nc3n3c2sc2ccccc23)cn1
viability, T/C [1]: 36.8% | viability, T/C [2]: 18.8% | viability, T/C [3]: 21.1% | viability, T/C [4]: 15.4% | viability, T/C [5]: 33.4% | viability, T/C [6]: 31.6% | viability, T/C [7]: 10.5% | viability, T/C [8]: 7.68% | viability, T/C [9]: 8.96% | viability, T/C [10]: 9.72% | viability, T/C [11]: 12.6% | viability, T/C [12]: 17.9% | viability, T/C [13]: 6.19% | viability, T/C [14]: 6.34% | viability, T/C [15]: 5.97% | viability, T/C [16]: 6.08% | viability, T/C [17]: 7.07% | viability, T/C [18]: 8.93% | viability, T/C [19]: 3.82% | viability, T/C [20]: 4.77% | viability, T/C [21]: 3.79% | viability, T/C [22]: 4.54% | viability, T/C [23]: 5.48% | viability, T/C [24]: 5.76% | viability, T/C [25]: 1.67% | viability, T/C [26]: 2.31% | viability, T/C [27]: 1.96% | viability, T/C [28]: 2.66% | viability, T/C [29]: 3.94% | viability, T/C [30]: 3% | viability, T/C [31]: 0.09% | viability, T/C [32]: 0.12% | viability, T/C [33]: 0.27% | viability, T/C [34]: 0.16% | viability, T/C [35]: 0.16% | viability, T/C [36]: 0.15%

IC50 (second compound 0.0316 µM): 152 nM | IC50 (second compound 0.1 µM): < 31.6 nM | IC50 (second compound 0.316 µM): < 31.6 nM | IC50 (second compound 1 µM): < 31.6 nM | IC50 (second compound 3.16 µM): < 31.6 nM | IC50 (second compound 10 µM): < 31.6 nM
SMILES: O=c1[nH]cc(F)c(=O)[nH]1 + Cc1cnc(CNC(=O)c2c(=O)c3ccc(N4CCCN(C)CC4)nc3n3c2sc2ccccc23)cn1
viability, T/C [1]: 110% | viability, T/C [2]: 70.7% | viability, T/C [3]: 13.4% | viability, T/C [4]: 6.62% | viability, T/C [5]: 6.16% | viability, T/C [6]: 7.17% | viability, T/C [7]: 35.3% | viability, T/C [8]: 38.2% | viability, T/C [9]: 16.7% | viability, T/C [10]: 9.09% | viability, T/C [11]: 8.85% | viability, T/C [12]: 9.1% | viability, T/C [13]: 11% | viability, T/C [14]: 14.4% | viability, T/C [15]: 13.6% | viability, T/C [16]: 10.8% | viability, T/C [17]: 10.2% | viability, T/C [18]: 12.7% | viability, T/C [19]: 6.94% | viability, T/C [20]: 8.36% | viability, T/C [21]: 9.57% | viability, T/C [22]: 9.08% | viability, T/C [23]: 8.58% | viability, T/C [24]: 8.28% | viability, T/C [25]: 4.97% | viability, T/C [26]: 5.62% | viability, T/C [27]: 7.29% | viability, T/C [28]: 6.64% | viability, T/C [29]: 6.67% | viability, T/C [30]: 8.36% | viability, T/C [31]: 0.04% | viability, T/C [32]: 0.08% | viability, T/C [33]: 2.48% | viability, T/C [34]: 0.28% | viability, T/C [35]: 2.43% | viability, T/C [36]: 0.18%

IC50 (second compound 0.0316 µM): > 10000 nM | IC50 (second compound 0.1 µM): < 31.6 nM | IC50 (second compound 0.316 µM): < 31.6 nM | IC50 (second compound 1 µM): < 31.6 nM | IC50 (second compound 3.16 µM): < 31.6 nM | IC50 (second compound 10 µM): < 31.6 nM
SMILES: C=CC(=O)N1CCN(c2nc(=O)n(-c3c(C)ccnc3C(C)C)c3nc(-c4c(O)cccc4F)c(F)cc23)C(C)C1 (stereo not drawn) + Cc1cnc(CNC(=O)c2c(=O)c3ccc(N4CCCN(C)CC4)nc3n3c2sc2ccccc23)cn1
viability, T/C [1]: 109% | viability, T/C [2]: 102% | viability, T/C [3]: 112% | viability, T/C [4]: 98% | viability, T/C [5]: 103% | viability, T/C [6]: 88.2% | viability, T/C [7]: 31.1% | viability, T/C [8]: 37.4% | viability, T/C [9]: 37.1% | viability, T/C [10]: 31.9% | viability, T/C [11]: 37% | viability, T/C [12]: 25.3% | viability, T/C [13]: 11.3% | viability, T/C [14]: 12.7% | viability, T/C [15]: 11.5% | viability, T/C [16]: 12.2% | viability, T/C [17]: 13.4% | viability, T/C [18]: 10.3% | viability, T/C [19]: 7.08% | viability, T/C [20]: 5.8% | viability, T/C [21]: 5.81% | viability, T/C [22]: 6.58% | viability, T/C [23]: 9.48% | viability, T/C [24]: 9.07% | viability, T/C [25]: 4.85% | viability, T/C [26]: 4.57% | viability, T/C [27]: 5.54% | viability, T/C [28]: 5.93% | viability, T/C [29]: 7.14% | viability, T/C [30]: 8.52% | viability, T/C [31]: 0.11% | viability, T/C [32]: 0.14% | viability, T/C [33]: 0.14% | viability, T/C [34]: 0.16% | viability, T/C [35]: 2.33% | viability, T/C [36]: 0.13%
